By TGI is commonly meant the concentration at which net growth stops. A low value points to greater sensitivity of the cells. The GI50 is the concentration at which growth is held to half of that of the control.

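Cells were grown in 96-well plates and exposed to each compound for 48 hours at five concentrations; endpoints were interpolated linearly between bracketing concentrations, or set to the highest concentration if not reached. At the GI50, growth is halved. TGI marks complete inhibition of growth.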

The text below walks through data of PubChem BioAssay (NCI).

Holding throughout (experiment): DTP human tumour cell line panel, 48 h
Assay [1] relates to A498 renal.
In assay [2] the test system is SK-OV-3 ovarian.
Assay [3] has as its system T-47D breast.
Assay [4] concerns SW-620 colon.
The subject of assay [5] is IGROV1 ovarian.
The test system of assay [6] is CCRF-CEM leukemia.
The test system of assay [7] is SNB-19 CNS.
In assay [8] the test system is RXF 393 renal.

Turning to `O=C1c2ccccc2-c2c1c1ccccc1c(=O)n2Cc1ccccc1`, the total growth inhibition concentration (TGI) in assay [1], in assay [2], in assay [3], in assay [4], in assay [5] and in assay [6] was greater than 100 µM in each case.

As to `Cc1ccc(C(=NN=C(N)N)c2ccc(C)cc2)cc1`, the 50% growth inhibitory concentration (GI50) in assay [1] is 0.395 µM; in assay [2], 1.16 µM; in assay [3], 0.869 µM; in assay [7], 2.23 µM; in assay [4], 0.379 µM; in assay [5] it was 0.644 µM. Also, the GI50 in assay [6] is 0.559 µM; in assay [8], 0.509 µM. The total growth inhibition concentration (TGI) was determined as 2.61 µM in assay [1]; 10.2 µM in assay [2]; 10.9 µM in assay [3]; 18.4 µM in assay [7]; 1.66 µM in assay [4]; 7.64 µM in assay [5]. The values for the TGI in assay [6] and in assay [8] were 12.2 µM and 1.73 µM, respectively.

As to `Cc1cc(SCC(=O)c2ccccc2)nc2ccccc12`, the TGI in assay [1], in assay [3], in assay [7], in assay [4], in assay [5] and in assay [8] was greater than 100 µM each time.

As for `COC(=O)C(=O)C(C(=O)C(=O)Nc1ccccc1C(N)=O)c1nc2ccc(Cl)cc2[nH]c1=O` (centres undefined), the concentration for total growth inhibition (TGI) in assay [1], in assay [2], in assay [3], in assay [7], in assay [4] and in assay [6] was greater than 100 µM throughout. In assay [8], this molecule returned a concentration for total growth inhibition (TGI) greater than 100 µM.

Take `NC(N)=NCCCn1c2c(c3ccccc3c1=O)C(=O)c1ccccc1-2`: the GI50 in assay [2] is 34.2 µM; in assay [3], 22.9 µM; in assay [7], 18.5 µM; in assay [4], 14.5 µM; in assay [5] it was 10.6 µM; in assay [6], 19.9 µM. Also, the GI50 in assay [8] was 7.82 µM. For the same molecule, the TGI in assay [2] was greater than 100 µM; in assay [3] it was 66.6 µM; in assay [7], 98.2 µM; in assay [4], 31 µM; in assay [5] it was 22.6 µM; in assay [6] it was greater than 100 µM. Also, the TGI in assay [8] was found to be 42.4 µM.

On to `COc1ccc(C(=O)c2cc(C)c(OC)c(C)c2)c(OC)c1N(C(=O)C(Cl)Cl)C(=O)C(Cl)Cl`, for which the GI50 in assay [1] is less than 0.0156 µM; in assay [2], 0.052 µM; in assay [7], 0.0492 µM; in assay [4], 0.0426 µM; in assay [5] it was 0.101 µM; in assay [6], 0.0626 µM. The TGI in assay [1] is 0.0736 µM; in assay [2], greater than 100 µM; in assay [7], greater than 100 µM; in assay [4], greater than 100 µM; in assay [5] it was greater than 100 µM; in assay [6], greater than 100 µM.

Turning to `CCN(CC)CCN1CC(O)=C(c2nc(-c3ccc(Cl)cc3)cs2)C1=N`, the GI50 in assay [1] is 1.72 µM; in assay [2], 4.76 µM; in assay [3] it was 2.19 µM; in assay [7], 2.1 µM; in assay [4], 1.91 µM; in assay [6], 2 µM. For the same molecule, the total growth inhibition concentration (TGI) is 3.47 µM in assay [1]; 25.2 µM in assay [2]; 5.11 µM in assay [3]; 4.5 µM in assay [7]; 3.8 µM in assay [4]; 4.99 µM in assay [6].

Consider `NC(CC(=O)OCc1ccccc1)C(=O)OCc1ccccc1` (centres undefined), for which the TGI in assay [3], in assay [7], in assay [4], in assay [5] and in assay [6] was greater than 100 µM throughout.

Regarding `CCOC(=O)c1c(CN2CCN(c3ccccc3)CC2)n(-c2ccccc2)c2cc(Br)c(O)cc12`, the GI50 in assay [1] is 12.7 µM; in assay [2], 34 µM; in assay [3], 7.59 µM; in assay [7], 21 µM; in assay [4] it was 6.32 µM; in assay [6], 0.0602 µM. The concentration for total growth inhibition (TGI) in assay [1] was 26.8 µM; in assay [2] it was 80.9 µM; in assay [3], 37.9 µM; in assay [7], 53.5 µM; in assay [4], 48 µM; in assay [6], greater than 100 µM.

Turning to `O=C(CCl)Nc1ccc(Cl)cc1`, the GI50 in assay [1] was 10.4 µM; in assay [2], 6.93 µM; in assay [3] it was 3.8 µM; in assay [7], 10.3 µM; in assay [4], 3.45 µM; in assay [5], 2.11 µM. Also, the GI50 in assay [8] was 2.14 µM. Also, the TGI in assay [1] worked out at 22.4 µM; in assay [2], 23 µM; in assay [3], 15.6 µM; in assay [7] it was 25.6 µM; in assay [4] it was 11.2 µM; in assay [5], 5.04 µM. This molecule also had a total growth inhibition concentration (TGI) in assay [8] of 4.43 µM.

Take `CCCCN=C(N)c1ccc(OCCSCCOc2ccc(C(N)=NCCCC)cc2)cc1`: the GI50 in assay [1] is 15.2 µM; in assay [2] it was 2.54 µM; in assay [3], 1.83 µM; in assay [4], 10.2 µM; in assay [5], 16.4 µM; in assay [6] it was 20.7 µM. Also, the GI50 in assay [8] is 43.2 µM. For the same molecule, the TGI in assay [1] is greater than 100 µM; in assay [2] it was greater than 100 µM; in assay [3] it was 24.8 µM; in assay [4] it was greater than 100 µM; in assay [5], greater than 100 µM; in assay [6], greater than 100 µM. This molecule also displayed a total growth inhibition concentration (TGI) in assay [8] greater than 100 µM.

Turning to `O=C(c1cccc(O)c1O)c1cn(Cc2ccc(F)cc2)c2cccc(O)c12`, the GI50 in assay [1] was 12.9 µM; in assay [2] it was 4.49 µM; in assay [3], 3.16 µM; in assay [7] it was 3.97 µM; in assay [4] it was 5.26 µM; in assay [5] it was 0.833 µM. Also, the GI50 in assay [6] is 0.861 µM. Moreover, the total growth inhibition concentration (TGI) in assay [1] was found to be 25.6 µM; in assay [2], 16 µM; in assay [3], 16.2 µM; in assay [7], 17 µM; in assay [4] it was 19.9 µM; in assay [5], 7.85 µM. This molecule returned a concentration for total growth inhibition (TGI) in assay [6] of 6.44 µM.

Take `CCOC(=O)c1cc(/C(=N\O)c2cc(OC)c(OC)c(OC)c2)n2cc(C)cc(C)c12`: the GI50 in assay [1] was 1.99 µM; in assay [2] it was 1.89 µM; in assay [7], 4.57 µM; in assay [4], 2.56 µM; in assay [5], 3.21 µM; in assay [8] it was 1.95 µM. Also, the TGI is 6.74 µM in assay [1]; 4.8 µM in assay [2]; greater than 100 µM in assay [7]; greater than 100 µM in assay [4]; greater than 100 µM in assay [5]; 5.26 µM in assay [8].

On to `CCOC1=NC(=O)CC(c2ccccc2)S1` (centres undefined), for which the TGI in assay [1], in assay [7], in assay [4], in assay [5], in assay [6] and in assay [8] was greater than 100 µM in each case.

As for `Cc1ccc(/C(=C/C=C(C#N)C#N)Sc2ccc(Cl)cc2)cc1`, the GI50 in assay [1] is 19.4 µM; in assay [2], 16.4 µM; in assay [3] it was 18.8 µM; in assay [7], 11 µM; in assay [4], 3.53 µM; in assay [6], 2.41 µM. In addition, in assay [8], the GI50 is 11.9 µM. In addition, the concentration for total growth inhibition (TGI) came out at 34.8 µM in assay [1]; 36.1 µM in assay [2]; 56.5 µM in assay [3]; 25.3 µM in assay [7]; 10.7 µM in assay [4]; 17.4 µM in assay [6]. Further, the TGI in assay [8] turned out to be 39.2 µM.

As for `CN(C)c1ccc(N)cc1`, the GI50 is 7.02 µM in assay [1]; 13.1 µM in assay [2]; 3.25 µM in assay [3]; 4.35 µM in assay [7]; 4.15 µM in assay [4]; 4.04 µM in assay [5]. Further, in assay [8], the GI50 was 10.4 µM. The TGI was 50.7 µM in assay [1]; 58 µM in assay [2]; 9.7 µM in assay [3]; greater than 100 µM in assay [7]; 17.2 µM in assay [4]; 23.8 µM in assay [5]. For the same molecule, the TGI in assay [8] came to 26 µM.

As for `CN(C)CCNC(=O)c1cccc(C(=O)Nc2ccccc2)c1[N+](=O)[O-]`, the TGI in assay [1], in assay [2], in assay [3], in assay [7], in assay [4] and in assay [5] was greater than 100 µM throughout. Besides, in assay [6], the concentration for total growth inhibition (TGI) was greater than 100 µM.

For `COc1cc2oc(-c3ccc(O)cc3)cc(=O)c2c(OC)c1OC`, the TGI in assay [1], in assay [3], in assay [7], in assay [4], in assay [5] and in assay [6] was greater than 100 µM throughout. In assay [8], this molecule had a concentration for total growth inhibition (TGI) greater than 100 µM.

On to `O=C1NC(=O)c2ccc([N+](=O)[O-])c3cccc1c23`, for which the TGI in assay [1] is 29.1 µM; in assay [2] it was 50.9 µM; in assay [3], 44 µM; in assay [7], 33.7 µM; in assay [4] it was 25.7 µM; in assay [5], 31 µM. Besides, the TGI in assay [8] came out at 29.1 µM.
